# Test results: patent US10441663B2, “Methods for treating cancer” (Bicycle Therapeutics Limited, priority 2016, dated 2019)
# *1 amine or outer side, *2 acyl side, *3 side chain or, on linkers, in order; H or OH if unused. Where a SMILES comes first, the peptide text is derived from it. Bridges are numbered along the chain shown (N, C = ends). [ ]: non-standard residue; d: D form. The star is where a group is joined. X1 = COc1cc2cc(c1Cl)N(C)C(=O)C[C@H](OC(=O)[C@H](C)N(C)C(=O)CCSSC(C)CCC(=O)*)[C@]1(C)O[C@H]1[C@H](C)[C@@H]1C[C@@](O)(NC(=O)O1)[C@H](OC)/C=C/C=C(\C)C2; 1Nal = N[C@@H](Cc1cccc2ccccc12)C(=O)O; TBMB = c1c(C[*:1])cc(C[*:3])cc1C[*:2]; Tle = CC(C)(C)[C@H](N)C(=O)O; βAla = NCCC(=O)O; Sar = CNCC(=O)O
# Tested on: LU-01-0251 non-small-cell lung carcinoma (NSCLC) PDX model
# Assay: Efficacy in LU-01-0251 NSCLC PDX model (high MT1-expressing, docetaxel sensitive)
# Type: in vivo, Balb/C nude mice
# Source text: The objective of the project is to evaluate the in vivo therapeutic efficacy of test articles in the LU-01-0251 non-small-cell lung carcinoma (NSCLC) PDX model. LU-01-0251 is a high MT1-expressing NSCLC that is docetaxel sensitive.
# Each mouse was inoculated subcutaneously at the right flank with certain kind of tumor fragment (30 mm3) for tumor development. The treatments started when the average tumor volume reaches approximately 150-200 mm^3. The test article administration and the animal numbers in each group are shown in Table 40 which details the experimental design.
# Treatment was given until the control tumors reached an average of 1000 mm^3.
# Before commencement of treatment all animals will be weighed and the tumor volumes will be measured. Since the tumor volume can affect the effectiveness of any given treatment, mice will be assigned into groups using randomized block design based upon their tumor volumes.
# The protocol and any amendment(s) or procedures involving the care and use of animals in this study will be reviewed and approved prior to conduct. […] At the time of routine monitoring, the animals will be checked for any effects of tumor growth and treatments on normal behavior such as mobility, food and water consumption, body weight gain/loss (body weights will be measured twice weekly), eye/hair matting and any other abnormal effect. Death and observed clinical signs will be recorded on the basis of the numbers of animals within each subset.
# The major endpoint is to see if the tumor growth can be delayed or mice can be cured. Tumor sizes will be measured twice weekly in two dimensions using a caliper and the volume will be expressed in mm^3 using the formula: V=0.5 a×b^2 where a and b are the long and short diameters of the tumor, respectively. […] T-C is calculated with T as the median time (in days) required for the treatment group tumors to reach a predetermined size (e.g., 1.000 mm^3), and C is the median time (in days) for the control group tumors to reach the same size. […]
# TGI is calculated for each group using the formula. […]
smiles,measurement,setting,value
COc1cc2cc(c1Cl)N(C)C(=O)C[C@H](OC(=O)[C@H](C)N(C)C(=O)CCSSC(C)CCC(=O)NCCC(=O)N(C)CC(=O)N(C)CC(=O)N(C)CC(=O)N(C)CC(=O)N(C)CC(=O)N(C)CC(=O)N(C)CC(=O)N(C)CC(=O)N(C)CC(=O)N(C)CC(=O)N[C@@H](C)C(=O)N[C@H]1CSCc3cc4cc(c3)CSC[C@H](NC(=O)[C@@H](C)NC(=O)[C@H](Cc3cccc5ccccc35)NC(=O)[C@H](CCC(=O)O)NC(=O)[C@H](CC(N)=O)NC(=O)[C@@H](C)NC1=O)C(=O)N[C@@H](CCC(=O)O)C(=O)N[C@@H](CC(=O)O)C(=O)N[C@@H](Cc1ccccc1)C(=O)N[C@@H](Cc1ccc(O)cc1)C(=O)N[C@@H](CC(=O)O)C(=O)N[C@@H](C(C)(C)C)C(=O)N[C@H](C(N)=O)CSC4)[C@]1(C)O[C@H]1[C@H](C)[C@@H]1C[C@@](O)(NC(=O)O1)[C@H](OC)/C=C/C=C(\C)C2 (stereo partly drawn) [BT1718] ({X1-βAla}-[Sar][Sar][Sar][Sar][Sar][Sar][Sar][Sar][Sar][Sar]AC[dA]NE[1Nal][dA]CEDFYD[Tle]C-NH2; linker 12-18-25 via TBMB (inferred)),tumor response,3 mg/kg biw,tumor stasis
same,relapse after cessation of dosing,10 mg/kg biw,lack of relapse
same,tumor response,10 mg/kg biw,tumor eradication
